Consider 35 molecules from US20150105386A1, “4-(4-PYRIDINYL)-BENZAMIDES AND THEIR USE AS ROCK ACTIVITY MODULATORS” (AbbVie Deutschland GmbH & Co KG, priority 2007, published 2015).

Each structure is given as a SMILES string. Bounds are passed on as bounds.

The target of the assay is T1, hROCK-2 (Homo sapiens, UniProt O75116).
T1 construct: purchased Upstate
T1 sequence (O75116 whole entry): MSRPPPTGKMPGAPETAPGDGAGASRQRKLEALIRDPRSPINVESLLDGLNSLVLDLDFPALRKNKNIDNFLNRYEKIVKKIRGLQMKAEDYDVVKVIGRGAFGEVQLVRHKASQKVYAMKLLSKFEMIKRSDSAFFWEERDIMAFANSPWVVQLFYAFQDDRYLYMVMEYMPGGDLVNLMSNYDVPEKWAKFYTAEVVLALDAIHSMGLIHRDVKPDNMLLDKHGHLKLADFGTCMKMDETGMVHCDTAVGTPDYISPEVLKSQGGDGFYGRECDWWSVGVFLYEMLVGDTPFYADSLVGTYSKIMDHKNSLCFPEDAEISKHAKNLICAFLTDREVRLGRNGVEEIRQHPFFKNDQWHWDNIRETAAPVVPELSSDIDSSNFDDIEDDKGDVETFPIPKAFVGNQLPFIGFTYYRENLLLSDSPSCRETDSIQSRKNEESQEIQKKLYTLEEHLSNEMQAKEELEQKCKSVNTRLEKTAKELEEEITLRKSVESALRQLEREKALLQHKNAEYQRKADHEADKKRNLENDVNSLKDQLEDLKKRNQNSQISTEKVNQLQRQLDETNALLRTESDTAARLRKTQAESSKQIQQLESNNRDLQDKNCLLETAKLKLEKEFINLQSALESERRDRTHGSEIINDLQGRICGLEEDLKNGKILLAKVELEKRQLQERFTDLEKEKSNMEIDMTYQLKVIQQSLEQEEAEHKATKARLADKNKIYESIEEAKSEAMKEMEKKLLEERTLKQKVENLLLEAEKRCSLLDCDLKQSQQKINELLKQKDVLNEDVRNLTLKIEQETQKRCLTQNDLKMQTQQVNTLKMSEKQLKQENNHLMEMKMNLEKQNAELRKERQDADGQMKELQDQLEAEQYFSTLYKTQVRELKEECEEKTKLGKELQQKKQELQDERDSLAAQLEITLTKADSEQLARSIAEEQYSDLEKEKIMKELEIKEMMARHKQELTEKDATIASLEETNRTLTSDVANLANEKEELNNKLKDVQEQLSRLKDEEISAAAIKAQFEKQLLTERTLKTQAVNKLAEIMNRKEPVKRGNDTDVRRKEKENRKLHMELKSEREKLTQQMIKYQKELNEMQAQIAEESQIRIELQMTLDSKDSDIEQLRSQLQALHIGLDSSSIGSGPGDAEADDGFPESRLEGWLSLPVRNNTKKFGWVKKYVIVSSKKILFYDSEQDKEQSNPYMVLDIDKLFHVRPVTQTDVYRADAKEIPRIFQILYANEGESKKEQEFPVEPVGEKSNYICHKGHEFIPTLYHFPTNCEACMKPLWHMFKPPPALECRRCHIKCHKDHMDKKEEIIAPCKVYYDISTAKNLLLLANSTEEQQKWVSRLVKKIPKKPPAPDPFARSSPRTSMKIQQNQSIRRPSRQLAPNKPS
As to the kind of experiment: ROCK-2 Assay (33P-ATP FlashPlate kinase assay, biotinylated S6 peptide). To be noted: hROCK-2 0.8 nM, 5 μM ATP, 1.5 μM biotinylated S6 peptide, room temperature, 60 min. It is filed as biochemical. The method, then:
The reaction is stopped by addition of 150 μl of 0.1 M EDTA in Dulbecco's PBS. 170 μl from each well are loaded onto a FlashPlate (PerkinElmer) and incubated at room temperature for 30 min.
By Ki is commonly meant a dissociation constant, usually derived from enzyme kinetics or from competition with a known ligand. Low readings indicate a stronger hold on the target, high ones a looser hold on the target. Turning to `O=C(N[C@H](CCO)c1ccccc1)c1ccc(-c2ccncc2)cc1` [Example 2, N-[(1R)-3-hydroxy-1-phenylpropyl]-4-pyridin-4-ylbenzamide], the Ki is below 50 nM.
As for `CC(C)(C)OC(=O)NCC(NC(=O)c1ccc(-c2ccncc2)cc1)c1ccccc1` (centres unmarked) [Example 3, tert-Butyl-{2-phenyl-2-[(4-pyridin-4-ylbenzoyl)amino]ethyl}carbamate], the Ki lay within 50 to 500 nM.
Regarding `O=C(N[C@H](CO)Cc1ccccc1)c1ccc(-c2ccncc2)cc1` [Example 7, N-[(1S)-1-benzyl-2-hydroxyethyl]-4-pyridin-4-ylbenzamide], the Ki was below 50 nM.
`O=C(N[C@H](CO)Cc1c[nH]c2ccccc12)c1ccc(-c2ccncc2)cc1` [Example 14, N-[(1S)-2-hydroxy-1-(1H-indol-3-ylmethyl)ethyl]-4-pyridin-4-ylbenzamide] gave a Ki of 50 to 500 nM.
The molecule `O=C(N[C@H](CO)Cc1ccc(O)cc1)c1ccc(-c2ccncc2)cc1` [Example 15, N-[(1S)-2-hydroxy-1-(4-hydroxybenzyl)ethyl]-4-pyridin-4-ylbenzamide] came in with a Ki of 50 to 500 nM.
Then `COCC(Cc1ccccc1)NC(=O)c1ccc(-c2ccncc2)cc1` (centres unmarked) [Example 16, N-(1-benzyl-2-methoxyethyl)-4-pyridin-4-ylbenzamide], with 50 to 500 nM; and `O=C(N[C@@H](Cc1ccccc1)CN1CCCC1)c1ccc(-c2ccncc2)cc1` [Example 28, N-[(1S)-1-benzyl-2-pyrrolidin-1-ylethyl]-4-pyridin-4-ylbenzamide], with below 50 nM; and `O=C(N[C@@H](c1ccccc1)[C@H](O)c1ccccc1)c1ccc(-c2ccncc2)cc1` [Example 29, N-[(1S,2R)-2-hydroxy-1,2-diphenylethyl]-4-pyridin-4-ylbenzamide], with 50 to 500 nM.
Then `CN(C)CC(NC(=O)c1ccc(-c2ccncc2)cc1)c1ccccc1` (centres unmarked) [Example 30, N-[2-(dimethylamino)-1-phenylethyl]-4-pyridin-4-ylbenzamide], with below 50 nM; and `O=C(NC(CN1CCCC1)c1ccccc1)c1ccc(-c2ccncc2)cc1` (centres unmarked) [Example 31, N-(1-phenyl-2-pyrrolidin-1-ylethyl)-4-pyridin-4-ylbenzamide], with below 50 nM.
`O=C(NC(CN1CCOCC1)c1ccccc1)c1ccc(-c2ccncc2)cc1` (centres unmarked) [Example 32, N-(2-morpholin-4-yl-1-phenylethyl)-4-pyridin-4-ylbenzamide] yielded a Ki below 50 nM.
Consider `CN1CCN(CC(NC(=O)c2ccc(-c3ccncc3)cc2)c2ccccc2)CC1` (centres unmarked) [Example 33, N-[2-(4-methylpiperazin-1-yl)-1-phenylethyl]-4-pyridin-4-ylbenzamide], for which the Ki was 50 to 500 nM.
Take `O=C(NC(c1ccccc1)[C@@H](O)c1ccccc1)c1ccc(-c2ccncc2)cc1` (stereo partly drawn) [Example 34, N-[(2S)-2-hydroxy-1,2-diphenylethyl]-4-pyridin-4-ylbenzamide]: the inhibition constant Ki was in the range of 50 to 500 nM.
As to `O=C(NC(Cn1ccnc1)c1ccccc1)c1ccc(-c2ccncc2)cc1` (centres unmarked) [Example 35, N-[2-(1H-imidazol-1-yl)-1-phenylethyl]-4-pyridin-4-ylbenzamide], the Ki was below 50 nM.
`O=C(NC(CN1CCCCC1)c1ccccc1)c1ccc(-c2ccncc2)cc1` (centres unmarked) [Example 36, N-(1-phenyl-2-piperidin-1-ylethyl)-4-pyridin-4-ylbenzamide] had an inhibition constant (Ki) below 50 nM.
For the molecule `O=C(NC(CO)c1cccnc1)c1ccc(-c2ccncc2)cc1` (centres unmarked) [Example 39, N-(2-hydroxy-1-pyridin-3-ylethyl)-4-pyridin-4-ylbenzamide], the inhibition constant (Ki) was in the range of 50 to 500 nM.
Molecule `Cc1ccc(C(CO)NC(=O)c2ccc(-c3ccncc3)cc2)c(C)c1` (centres unmarked) [Example 40, N-[1-(2,4-dimethylphenyl)-2-hydroxyethyl]-4-pyridin-4-ylbenzamide] yielded a Ki of 50 to 500 nM.
The figure for `Cc1ccc(C(CO)NC(=O)c2ccc(-c3ccncc3)cc2)cc1C` (centres unmarked) [Example 41, N-[1-(3,4-dimethylphenyl)-2-hydroxyethyl]-4-pyridin-4-ylbenzamide] is below 50 nM.
The figure for `COc1ccc(C(CN)NC(=O)c2ccc(-c3ccncc3)cc2)cc1` (centres unmarked) [Example 44, N-[2-amino-1-(4-methoxyphenyl)ethyl]-4-pyridin-4-ylbenzamide] is 50 to 500 nM; for `Cc1ccc(C(CN)NC(=O)c2ccc(-c3ccncc3)cc2)cc1` (centres unmarked) [Example 46, N-[2-amino-1-(4-methylphenyl)ethyl]-4-pyridin-4-ylbenzamide] it is below 50 nM.
Then `C[C@@H](NC(=O)c1ccc(-c2ccncc2)cc1)c1cccc2ccccc12` [Example 47, N-[(1R)-1-(1-naphthyl)ethyl]-4-pyridin-4-ylbenzamide], with below 50 nM.
Consider `O=C(NC(Cc1ccccc1)c1ccccc1)c1ccc(-c2ccncc2)cc1` (centres unmarked) [Example 48, N-(1,2-diphenylethyl)-4-pyridin-4-ylbenzamide], for which the Ki lay in the range of 50 to 500 nM.
As to `O=C(NC(c1ccccc1)c1ccc(Cl)cc1)c1ccc(-c2ccncc2)cc1` (centres unmarked) [Example 49, N-[(4-chlorophenyl)(phenyl)methyl]-4-pyridin-4-ylbenzamide], the inhibition constant Ki was 50 to 500 nM.
For the molecule `CC(NC(=O)c1ccc(-c2ccncc2)cc1)c1ccco1` (centres unmarked) [Example 53], the Ki was in the range of 50 to 500 nM.
Turning to `Cc1ccc(C(C)NC(=O)c2ccc(-c3ccncc3)cc2)o1` (centres unmarked) [Example 71], the Ki lay within 50 to 500 nM.
The molecule `CC(NC(=O)c1ccc(-c2ccncc2)cc1)c1cccs1` (centres unmarked) [Example 72, 4-pyridin-4-yl-N—O-(2-thienyl)ethypenzamide] showed an inhibition constant Ki below 50 nM.
On to `CCC(NC(=O)c1ccc(-c2ccncc2)cc1)c1ccccc1` (centres unmarked) [Example 75, N-(1-phenylpropyl)-4-pyridin-4-ylbenzamide], for which the inhibition constant (Ki) was below 50 nM.
`CC(NC(=O)c1ccc(-c2ccncc2)cc1)c1ccccn1` (centres unmarked) [Example 76, 4-pyridin-4-yl-N-(1-pyridin-2-ylethyl)benzamide] yielded a Ki of 50 to 500 nM.
As to `CC(NC(=O)c1ccc(-c2ccncc2)cc1)c1cccnc1` (centres unmarked) [Example 79, 4-pyridin-4-yl-N-(1-pyridin-3-ylethyl)benzamide], the Ki lay in the range of 50 to 500 nM.
`C[C@@H](NC(=O)c1ccc(-c2ccncc2)cc1)c1ccccn1` [Example 80, 4-pyridin-4-yl-N-[(1R)-1-pyridin-2-ylethyl]benzamide]: the Ki was 50 to 500 nM.
Regarding `Cc1ccc([C@@H](C)NC(=O)c2ccc(-c3ccncc3)cc2)cc1` [Example 82, N-[(1R)-1-(4-methylphenyl)ethyl]-4-pyridin-4-ylbenzamide], the Ki lay in the range of 50 to 500 nM.
With `C[C@@H](NC(=O)c1ccc(-c2ccncc2)cc1)c1ccc(F)cc1` [Example 85, N-[(1R)-1-(4-fluorophenyl)ethyl]-4-pyridin-4-ylbenzamide], the Ki is below 50 nM.
`C[C@@H](NC(=O)c1ccc(-c2ccncc2)cc1)c1ccccc1C(F)(F)F` [Example 86, 4-pyridin-4-yl-N-{(1R)-1-[2-(trifluoromethyl)phenyl]ethyl}benzamide] registered a Ki of 50 to 500 nM.
Regarding `C[C@@H](NC(=O)c1ccc(-c2ccncc2)cc1)c1cccc(C(F)(F)F)c1` [Example 87, 4-pyridin-4-yl-N-{(1R)-1-[3-(trifluoromethyl)phenyl]ethyl}benzamide], the Ki was below 50 nM.
The figure for `C[C@@H](NC(=O)c1ccc(-c2ccncc2)cc1)c1ccccc1F` [Example 88, N-[(1R)-1-(2-fluorophenyl)ethyl]-4-pyridin-4-ylbenzamide] is below 50 nM.
